Experimental data reported in ChEMBL document CHEMBL4376882, “Photodynamic Therapy for ras-Driven Cancers: Targeting G-Quadruplex RNA Structures with Bifunctional Alkyl-Modified Porphyrins” (J Med Chem, 2020).
Activity calls are given as the source filed them. No cut-off for these calls is given here.

What was measured:
[1] = molecular target: GTPase NRas (Homo sapiens) (UniProt P01111); test: Inhibition of NRAS in human PANC1 cells assessed as downregulation of NRAS expression at 15 nM after 4 hrs by Western blot analysis; format: cell-based
PANC-1 [2] = test: Induction of apoptosis in human PANC1 cells assessed as late apoptotic cells at 10 nM and photoirradiated at 7.2 J/cm2 measured after 6 to 24 hrs by annexin-V-propidium iodide staining based FACScalibur flow cytometry analysis (reference value: 2.7 %); format: functional
Quadruplex DNA [3] = test: Binding affinity to human KRAS utr-c RNA g-quadruplex by fluorescence spectroscopy; format: nucleic-acid assay
[4] = Induction of ROS-mediated […] labelled 20-mer utr-z stem-loop RNA (unknown origin) degradation at 0.6 uM incubated for 30 mins followed by photoirradiation for 15 to 30 mins by PAGE analysis
PANC-1 [5] = test: Induction of apoptosis in human PANC1 cells assessed as necrotic cells at 5 nM and photoirradiated at 7.2 J/cm2 measured after 6 to 24 hrs in presence of NAC by annexin-V-propidium iodide staining based FACScalibur flow cytometry analysis (reference value: 1 %); format: functional
[6] = molecular target: GTPase KRas (Homo sapiens) (UniProt P01116); test: Inhibition of KRAS in human PANC1 cells assessed as decrease in KRAS mRNA level at 15 nM followed by 7.2 J/cm2 irradiation after 4 hrs by qRT-PCR analysis; format: cell-based
Quadruplex DNA [7] = test: Binding affinity to human KRAS utr-z RNA g-quadruplex at 40 degree C by SPR analysis; format: nucleic-acid assay
[8] = Drug uptake in human PANC1 cells in presence of dynamin-inhibitor dynasore; format: ADME, cell-based; details: panc-1
PANC-1 [9] = test: Induction of apoptosis in human PANC1 cells assessed as cleavage of caspase 3 when photoirradiated at 7.2 J/cm2 by Western blot analysis; format: functional, cell-based
[10] = Toxicity in SCID mouse xenografted with human PANC1 cells assessed as tissue damage around the irradiated tumor at 3 mg/kg administered intratumorally after 2 hrs photoirradiated by diode laser at 193 J/cm2; format: organism-based; details: in vivo, other
PANC-1 [11] = test: Cytotoxicity against human PANC1 cells assessed as reduction in metabolic activity at 20 nM after 24 to 72 hrs in dark followed by photoirradiation in presence of NADH by resazurin assay; format: functional, cell-based
PANC-1 [12] = test: Induction of apoptosis in human PANC1 cells assessed as cleavage of caspase 7 when photoirradiated at 7.2 J/cm2 by Western blot analysis; format: functional, cell-based
PANC-1 [13] = test: Induction of apoptosis in human PANC1 cells assessed as necrotic cells at 10 nM and photoirradiated at 7.2 J/cm2 measured after 6 to 24 hrs in presence of NAC by annexin-V-propidium iodide staining based FACScalibur flow cytometry analysis (reference value: 1 %); format: functional
PANC-1 [14] = test: Induction of apoptosis in human PANC1 cells assessed as necrotic cells at 5 nM and photoirradiated at 7.2 J/cm2 measured after 6 to 24 hrs by annexin-V-propidium iodide staining based FACScalibur flow cytometry analysis (reference value: 0.7 %); format: functional
PANC-1 [15] = test: Cytotoxicity against human PANC1 cells assessed as reduction in metabolic activity at 20 nM after 24 to 72 hrs in dark followed by photoirradiation in presence of NADH and NAC by resazurin assay; format: functional, cell-based
Quadruplex DNA [16] = test: Binding affinity to human KRAS utr-z RNA g-quadruplex by fluorescence spectroscopy; format: nucleic-acid assay
[17] = Drug uptake in human PANC1 cells at 5 uM after 2 hrs by FACS analysis; format: ADME, cell-based; details: panc-1, 2 h
[18] = Induction of ROS-mediated Cys5.5 labelled utr-c RNA duplex (unknown origin) degradation at 0.6 uM incubated for 30 mins followed by photoirradiation for 15 to 30 mins by PAGE analysis
PANC-1 [19] = test: Induction of apoptosis in human PANC1 cells assessed as viable cells at 10 nM and photoirradiated at 7.2 J/cm2 measured after 6 to 24 hrs in presence of NAC by annexin-V-propidium iodide staining based FACScalibur flow cytometry analysis (reference value: 94.5 %); format: functional; details: PANC-1, light or radiation study, read-out: Activity
PANC-1 [20] = test: Induction of apoptosis in human PANC1 cells assessed as early apoptotic cells at 10 nM and photoirradiated at 7.2 J/cm2 measured after 6 to 24 hrs in presence of NAC by annexin-V-propidium iodide staining based FACScalibur flow cytometry analysis (reference value: 3.1 %); format: functional
PANC-1 [21] = test: Induction of apoptosis in human PANC1 cells assessed as viable cells at 15 nM and photoirradiated at 7.2 J/cm2 measured after 6 to 24 hrs in presence of NAC by annexin-V-propidium iodide staining based FACScalibur flow cytometry analysis (reference value: 94.5 %); format: functional; details: PANC-1, light or radiation study, read-out: Activity
MIA PaCa-2 = test: Cytotoxicity against human MIAPaCa2 cells harboring G12C point mutation assessed as reduction in metabolic activity after 48 hrs in dark followed by photoirradiation in presence of NADH by resazurin assay; format: functional, cell-based
PANC-1 [22] = test: Induction of ROS generation in human PANC1 cells assessed as cleavage of CM-H2DCFDA to CM-H2DCF by intracellular esterase by measuring green fluorescence emission incubated for 16 hrs followed by 7.2J/cm2 photoirradiation and subsequent compound washout measured after 40 mins by CM-H2DCFDA staining-based FACSCalibur flow cytometry; format: functional, cell-based
PANC-1 [23] = test: Induction of apoptosis in human PANC1 cells assessed as viable cells at 10 nM and photoirradiated at 7.2 J/cm2 measured after 6 to 24 hrs by annexin-V-propidium iodide staining based FACScalibur flow cytometry analysis (reference value: 91.9 %); format: functional; details: PANC-1, light or radiation study, read-out: Activity
PANC-1 [24] = test: Induction of apoptosis in human PANC1 cells assessed as necrotic cells at 15 nM and photoirradiated at 7.2 J/cm2 measured after 6 to 24 hrs by annexin-V-propidium iodide staining based FACScalibur flow cytometry analysis (reference value: 0.7 %); format: functional
Quadruplex DNA [25] = test: Induction of ROS-mediated […] labeled Ras RNA g-quadruplex (unknown origin) degradation assessed as residual RNA g-quadruplex at 0.6 uM incubated for 15 to 30 mins followed by photoirradiation for 30 mins by PAGE analysis relative to control; format: nucleic-acid assay
PANC-1 [26] = test: Induction of apoptosis in human PANC1 cells assessed as necrotic cells at 15 nM and photoirradiated at 7.2 J/cm2 measured after 6 to 24 hrs in presence of NAC by annexin-V-propidium iodide staining based FACScalibur flow cytometry analysis (reference value: 1 %); format: functional
[27] = Drug uptake in human HEK293 cells at 5 uM and 4 degree C after 16 hrs by FACS analysis relative to 37 degree C; format: ADME, cell-based; details: hek293, 16 h
PANC-1 [28] = test: Induction of apoptosis in human PANC1 cells assessed as cleavage of PARP1 when photoirradiated at 7.2 J/cm2 by Western blot analysis; format: functional, cell-based
Quadruplex DNA [29] = test: Induction of ROS-mediated […] labeled Ras RNA g-quadruplex (unknown origin) degradation at 0.6 uM incubated for 30 mins in presence of NAC followed by photoirradiation for 15 to 30 mins by PAGE analysis; format: nucleic-acid assay
[30] = Aggregation property of compound at > 40 degree C; format: physicochemical

Sequence of GTPase KRas (Homo sapiens) (P01116 whole entry, looked up): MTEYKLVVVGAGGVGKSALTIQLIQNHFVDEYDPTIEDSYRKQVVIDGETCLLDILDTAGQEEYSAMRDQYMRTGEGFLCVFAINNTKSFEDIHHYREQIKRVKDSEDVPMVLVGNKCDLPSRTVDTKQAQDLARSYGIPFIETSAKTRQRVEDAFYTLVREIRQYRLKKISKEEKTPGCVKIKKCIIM
Sequence of GTPase NRas (Homo sapiens) (P01111 whole entry): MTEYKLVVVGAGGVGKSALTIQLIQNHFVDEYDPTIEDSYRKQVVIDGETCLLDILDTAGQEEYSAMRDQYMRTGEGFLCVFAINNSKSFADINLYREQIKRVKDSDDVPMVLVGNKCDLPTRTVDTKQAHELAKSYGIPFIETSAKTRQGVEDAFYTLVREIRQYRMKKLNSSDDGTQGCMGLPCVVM

CCCCCCCCCCCCCC[n+]1ccc(-c2c3nc(c(-c4cc[n+](C)cc4)c4ccc([nH]4)c(-c4cc[n+](C)cc4)c4nc(c(-c5cc[n+](C)cc5)c5ccc2[nH]5)C=C4)C=C3)cc1.[I-].[I-].[I-].[I-]
inhibition [1]: inactive | Activity (PANC-1 [2]): 10.9% | Kd (Quadruplex DNA [3]): 235 nM | Activity [4]: inactive | Activity (PANC-1 [5]): 1.2% | inhibition [6]: Active | Kd (Quadruplex DNA [7]): 82 to 202 nM | Drug uptake [8]: Not Active | Activity (PANC-1 [9]): Active | Activity [10]: Non-Toxic | Activity (PANC-1 [11]): Active | Activity (PANC-1 [12]): Active | Activity (PANC-1 [13]): 2.3% | Activity (PANC-1 [14]): 0.6% | Activity (PANC-1 [15]): inactive | Kd (Quadruplex DNA [16]): 219 nM | Drug uptake [17]: Active | Activity [18]: inactive | viability at 0.01 µM (PANC-1 [19]): 90.9% | Activity (PANC-1 [20]): 3.7% | viability at 0.015 µM (PANC-1 [21]): 89.4% | Activity (MIA PaCa-2): Active | Activity (PANC-1 [22]): Dose-dependent effect | viability at 0.01 µM (PANC-1 [23]): 82.1% | Activity (PANC-1 [24]): 4.1% | Activity (Quadruplex DNA [25]): 30% | Activity (PANC-1 [26]): 1.7% | Drug uptake [27]: Active | Activity (PANC-1 [28]): Active | Activity (Quadruplex DNA [29]): inactive | Activity [30]: Active
